In PubChem BioAssay AID2060897 (Molecular Pharmacology Branch, DTP, NCI, 2025):
Each block holds one molecule with its values, some of them ahead of it.

Tested on: 966289-007-R4-J1-PDC complex spheroid viability
Experiment: Anticancer human tumor 966289-007-R4-J1-PDC patient-derived pancreatic adenocarcinoma cell line growth inhibition [RAS]
Details: for IC50: curve of first compound; for viability, T/C: stronger effect = lower value
Outline: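 Agents were tested in combination matrices in half-log decrements from a top concentration at or near clinical Cmax (10 microM if undetermined). Targets were multi-cell spheroids of tumour lines plus HUVEC and MSC stromal cells.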

[1] = second compound 0.0316 µM, first compound 0.0316 µM
[2] = second compound 0.0316 µM, first compound 0.1 µM
[3] = second compound 0.0316 µM, first compound 0.316 µM
[4] = second compound 0.0316 µM, first compound 1 µM
[5] = second compound 0.0316 µM, first compound 3.16 µM
[6] = second compound 0.0316 µM, first compound 10 µM
[7] = second compound 0.1 µM, first compound 0.0316 µM
[8] = second compound 0.1 µM, first compound 0.1 µM
[9] = second compound 0.1 µM, first compound 0.316 µM
[10] = second compound 0.1 µM, first compound 1 µM
[11] = second compound 0.1 µM, first compound 3.16 µM
[12] = second compound 0.1 µM, first compound 10 µM
[13] = second compound 0.316 µM, first compound 0.0316 µM
[14] = second compound 0.316 µM, first compound 0.1 µM
[15] = second compound 0.316 µM, first compound 0.316 µM
[16] = second compound 0.316 µM, first compound 1 µM
[17] = second compound 0.316 µM, first compound 3.16 µM
[18] = second compound 0.316 µM, first compound 10 µM
[19] = second compound 1 µM, first compound 0.0316 µM
[20] = second compound 1 µM, first compound 0.1 µM
[21] = second compound 1 µM, first compound 0.316 µM
[22] = second compound 1 µM, first compound 1 µM
[23] = second compound 1 µM, first compound 3.16 µM
[24] = second compound 1 µM, first compound 10 µM
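Also: spheroids exposed to agents for one week before readout.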
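For viability, T/C in this document: percent viability relative to DMSO vehicle control wells as 100%.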

- IC50 (second compound 0.00316 µM): 1900 nM
- IC50 (second compound 0.01 µM): 1830 nM
- IC50 (second compound 0.0316 µM): 1850 nM
- IC50 (second compound 0.1 µM): 1880 nM
- IC50 (second compound 0.316 µM): 1860 nM
- IC50 (second compound 1 µM): 1840 nM
SMILES: CCC(CC)c1cc(NC2CCC(N)C2)n2nccc2n1 (stereo unspecified) + C=CC(=O)N1CCN(c2nc(OCC3CCCN3C)nc3c(F)c(-c4nc(N)cc(C)c4C(F)(F)F)c(Cl)cc23)C(C)C1
- viability, T/C (second compound 0.00316 µM, first compound 0.0316 µM): 104%
- viability, T/C (second compound 0.00316 µM, first compound 0.1 µM): 93.6%
- viability, T/C (second compound 0.00316 µM, first compound 0.316 µM): 112%
- viability, T/C (second compound 0.00316 µM, first compound 1 µM): 131%
- viability, T/C (second compound 0.00316 µM, first compound 3.16 µM): 2.16%
- viability, T/C (second compound 0.00316 µM, first compound 10 µM): 2.13%
- viability, T/C (second compound 0.01 µM, first compound 0.0316 µM): 99.5%
- viability, T/C (second compound 0.01 µM, first compound 0.1 µM): 95.7%
- viability, T/C (second compound 0.01 µM, first compound 0.316 µM): 101%
- viability, T/C (second compound 0.01 µM, first compound 1 µM): 114%
- viability, T/C (second compound 0.01 µM, first compound 3.16 µM): 2.2%
- viability, T/C (second compound 0.01 µM, first compound 10 µM): 2.15%
- viability, T/C [1]: 92%
- viability, T/C [2]: 102%
- viability, T/C [3]: 103%
- viability, T/C [4]: 123%
- viability, T/C [5]: 2.15%
- viability, T/C [6]: 1.75%
- viability, T/C [7]: 103%
- viability, T/C [8]: 103%
- viability, T/C [9]: 111%
- viability, T/C [10]: 117%
- viability, T/C [11]: 2.07%
- viability, T/C [12]: 2.09%
- viability, T/C [13]: 103%
- viability, T/C [14]: 97.9%
- viability, T/C [15]: 98.8%
- viability, T/C [16]: 125%
- viability, T/C [17]: 2.42%
- viability, T/C [18]: 2.33%
- viability, T/C [19]: 91.4%
- viability, T/C [20]: 92.1%
- viability, T/C [21]: 119%
- viability, T/C [22]: 113%
- viability, T/C [23]: 2.27%
- viability, T/C [24]: 2.77%

- IC50 (second compound 0.000949 µM): 1.67 nM
- IC50 (second compound 0.003 µM): 1.57 nM
- IC50 (second compound 0.00949 µM): 1.39 nM
- IC50 (second compound 0.03 µM): 1.14 nM
- IC50 (second compound 0.0949 µM): 1.15 nM
- IC50 (second compound 0.3 µM): 1.21 nM
SMILES: CCc1c2c(nc3ccc(O)cc13)-c1cc3c(c(=O)n1C2)COC(=O)[C@]3(O)CC + CCn1c(-c2cc(N3CCN(C)CC3)cnc2C(C)OC)c2c3cc(ccc31)-c1csc(n1)CC(NC(=O)C1CC1C)C(=O)N1CCCC(N1)C(=O)OCC(C)(C)C2
- viability, T/C (second compound 0.000949 µM, first compound 0.000949 µM): 95.5%
- viability, T/C (second compound 0.000949 µM, first compound 0.003 µM): 2.7%
- viability, T/C (second compound 0.000949 µM, first compound 0.00949 µM): 0.64%
- viability, T/C (second compound 0.000949 µM, first compound 0.03 µM): 0.62%
- viability, T/C (second compound 0.000949 µM, first compound 0.0949 µM): 0.49%
- viability, T/C (second compound 0.000949 µM, first compound 0.3 µM): 0.57%
- viability, T/C (second compound 0.003 µM, first compound 0.000949 µM): 86.2%
- viability, T/C (second compound 0.003 µM, first compound 0.003 µM): 3.2%
- viability, T/C (second compound 0.003 µM, first compound 0.00949 µM): 0.55%
- viability, T/C (second compound 0.003 µM, first compound 0.03 µM): 0.6%
- viability, T/C (second compound 0.003 µM, first compound 0.0949 µM): 1.32%
- viability, T/C (second compound 0.003 µM, first compound 0.3 µM): 0.57%
- viability, T/C (second compound 0.00949 µM, first compound 0.000949 µM): 71.3%
- viability, T/C (second compound 0.00949 µM, first compound 0.003 µM): 6.94%
- viability, T/C (second compound 0.00949 µM, first compound 0.00949 µM): 1.03%
- viability, T/C (second compound 0.00949 µM, first compound 0.03 µM): 0.54%
- viability, T/C (second compound 0.00949 µM, first compound 0.0949 µM): 0.73%
- viability, T/C (second compound 0.00949 µM, first compound 0.3 µM): 0.75%
- viability, T/C (second compound 0.03 µM, first compound 0.000949 µM): 58.1%
- viability, T/C (second compound 0.03 µM, first compound 0.003 µM): 7.49%
- viability, T/C (second compound 0.03 µM, first compound 0.00949 µM): 0.82%
- viability, T/C (second compound 0.03 µM, first compound 0.03 µM): 1.66%
- viability, T/C (second compound 0.03 µM, first compound 0.0949 µM): 0.53%
- viability, T/C (second compound 0.03 µM, first compound 0.3 µM): 0.43%
- viability, T/C (second compound 0.0949 µM, first compound 0.000949 µM): 58.9%
- viability, T/C (second compound 0.0949 µM, first compound 0.003 µM): 4.98%
- viability, T/C (second compound 0.0949 µM, first compound 0.00949 µM): 0.8%
- viability, T/C (second compound 0.0949 µM, first compound 0.03 µM): 0.54%
- viability, T/C (second compound 0.0949 µM, first compound 0.0949 µM): 0.7%
- viability, T/C (second compound 0.0949 µM, first compound 0.3 µM): 0.4%
- viability, T/C (second compound 0.3 µM, first compound 0.000949 µM): 62.1%
- viability, T/C (second compound 0.3 µM, first compound 0.003 µM): 4.76%
- viability, T/C (second compound 0.3 µM, first compound 0.00949 µM): 0.65%
- viability, T/C (second compound 0.3 µM, first compound 0.03 µM): 0.58%
- viability, T/C (second compound 0.3 µM, first compound 0.0949 µM): 0.62%
- viability, T/C (second compound 0.3 µM, first compound 0.3 µM): 0.39%

- IC50 (second compound 0.0316 µM): < 31.6 nM
- IC50 (second compound 0.1 µM): < 31.6 nM
- IC50 (second compound 0.316 µM): < 31.6 nM
- IC50 (second compound 1 µM): < 31.6 nM
- IC50 (second compound 3.16 µM): < 31.6 nM
- IC50 (second compound 10 µM): < 31.6 nM
SMILES: CC(=O)OC12COC1CC(O)C1(C)C(=O)C(O)C3=C(C)C(OC(=O)C(O)C(NC(=O)OC(C)(C)C)c4ccccc4)CC(O)(C(OC(=O)c4ccccc4)C21)C3(C)C (stereo unspecified) + C#Cc1c(F)ccc2cc(O)cc(-c3ncc4c(N5CC6CCC(C5)N6)nc(OCC56CCCN5CC(F)C6)nc4c3F)c12
- viability, T/C [1]: 9.75%
- viability, T/C [2]: 17.9%
- viability, T/C [3]: 20.4%
- viability, T/C [4]: 25.6%
- viability, T/C [5]: 50.5%
- viability, T/C [6]: 69.9%
- viability, T/C [7]: 10.9%
- viability, T/C [8]: 17.9%
- viability, T/C [9]: 19.7%
- viability, T/C [10]: 24.3%
- viability, T/C [11]: 36.3%
- viability, T/C [12]: 70.3%
- viability, T/C [13]: 10.4%
- viability, T/C [14]: 19.1%
- viability, T/C [15]: 19.3%
- viability, T/C [16]: 26%
- viability, T/C [17]: 49.9%
- viability, T/C [18]: 68.4%
- viability, T/C [19]: 9.72%
- viability, T/C [20]: 18.3%
- viability, T/C [21]: 21.2%
- viability, T/C [22]: 31.8%
- viability, T/C [23]: 44.9%
- viability, T/C [24]: 71.8%
- viability, T/C (second compound 3.16 µM, first compound 0.0316 µM): 10.6%
- viability, T/C (second compound 3.16 µM, first compound 0.1 µM): 20.9%
- viability, T/C (second compound 3.16 µM, first compound 0.316 µM): 25%
- viability, T/C (second compound 3.16 µM, first compound 1 µM): 31.7%
- viability, T/C (second compound 3.16 µM, first compound 3.16 µM): 44.6%
- viability, T/C (second compound 3.16 µM, first compound 10 µM): 83.2%
- viability, T/C (second compound 10 µM, first compound 0.0316 µM): 10.5%
- viability, T/C (second compound 10 µM, first compound 0.1 µM): 16.6%
- viability, T/C (second compound 10 µM, first compound 0.316 µM): 17.8%
- viability, T/C (second compound 10 µM, first compound 1 µM): 27.1%
- viability, T/C (second compound 10 µM, first compound 3.16 µM): 42.6%
- viability, T/C (second compound 10 µM, first compound 10 µM): 53.9%
